From US20250388575A1, “HETEROBIFUNCTIONAL COMPOUNDS AND METHODS OF TREATING DISEASE” (Halda Therapeutics OpCo, Inc., priority 2022, published 2025)

Biological target: progesterone receptor (Homo sapiens, UniProt P06401)
Assay: PR Human Progesterone NHR Binding (Agonist Radioligand) Assay, [3H]progesterone, T47D cytosol
Conditions: 0.5 nM [3H]progesterone, T47D cytosolic fractions, 1 hour at 4° C., legend words it as Kd
Description: Compounds were tested using the PR Human Progesterone NHR Binding (Agonist Radioligand) Assay, Cerep at Eurofins Discovery using a modified version of the protocol from Sarup et al. (Cancer Res 1988; 48:5071-5078). Briefly, cytosolic fractions of T47D cells were incubated with 0.5 nM [^3H]progesterone for 1 hour at 4° C. in the absence or presence of the test compound. Nonspecific binding was determined in the presence of 1 μM promegestone. Reactions were subjected to scintillation counting. Results are expressed as a percent inhibition of the control radioligand specific binding.

progesterone receptor, sequence (P06401 whole entry, looked up): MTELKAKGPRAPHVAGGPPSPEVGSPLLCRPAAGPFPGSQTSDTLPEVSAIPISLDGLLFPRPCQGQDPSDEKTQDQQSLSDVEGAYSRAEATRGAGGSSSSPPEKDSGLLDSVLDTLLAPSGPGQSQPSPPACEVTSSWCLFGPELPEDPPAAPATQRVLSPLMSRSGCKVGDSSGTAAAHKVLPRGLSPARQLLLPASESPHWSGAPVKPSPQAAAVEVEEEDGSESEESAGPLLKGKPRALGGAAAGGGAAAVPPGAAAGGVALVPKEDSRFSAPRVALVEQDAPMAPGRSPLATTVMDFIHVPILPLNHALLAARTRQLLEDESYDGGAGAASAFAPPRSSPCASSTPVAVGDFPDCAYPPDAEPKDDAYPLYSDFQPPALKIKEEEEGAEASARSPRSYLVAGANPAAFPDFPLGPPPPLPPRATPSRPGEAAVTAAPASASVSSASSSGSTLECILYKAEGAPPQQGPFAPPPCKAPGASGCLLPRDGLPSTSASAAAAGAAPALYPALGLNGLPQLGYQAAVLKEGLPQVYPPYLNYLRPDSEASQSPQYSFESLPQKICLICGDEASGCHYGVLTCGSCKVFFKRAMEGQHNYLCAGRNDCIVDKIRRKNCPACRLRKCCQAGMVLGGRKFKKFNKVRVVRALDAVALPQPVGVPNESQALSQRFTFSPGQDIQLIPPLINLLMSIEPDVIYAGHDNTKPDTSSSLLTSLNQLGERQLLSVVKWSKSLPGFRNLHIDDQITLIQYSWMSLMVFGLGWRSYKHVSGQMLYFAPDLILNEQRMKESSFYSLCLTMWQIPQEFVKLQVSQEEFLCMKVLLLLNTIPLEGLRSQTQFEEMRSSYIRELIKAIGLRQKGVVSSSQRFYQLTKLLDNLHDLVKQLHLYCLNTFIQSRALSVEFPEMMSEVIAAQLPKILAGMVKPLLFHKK

In the case of `CCS(=O)(=O)Nc1ccc(Oc2cccc(OCCOC3CCN(c4ccc(C(=O)N[C@H]5CC[C@H](Oc6ccc(C#N)c(Cl)c6)CC5)nn4)CC3)c2)c(-c2cn(C)c(=O)c3[nH]ccc23)c1` [I-1, N-[4-(3-chloro-4-cyano-phenoxy)cyclohexyl]-6-[4-[2-[3-[4-(ethylsulfonylamino)-2-(6-methyl-7-oxo-1H-pyrrolo[2,3-c]pyridin-4-yl)phenoxy]phenoxy]ethoxy]-1-piperidyl]pyridazine-3-carboxamide], the Ki is reported as 500 to 2500 nM.
